Measured values taken from patent US9061038B2, “Doxorubicin adjuvants to reduce toxicity and methods for using the same” (Tosk, Incorporated, priority 2008, dated 2015).
Entries after “also recorded” stand apart in the source; their conditions may differ. Structures can show the parent of a compound that is named as a salt.

How the values were obtained:
[1] = cited from earlier work
CD-1 mice [2] = assay: Mouse study: protection against doxorubicin-induced cardiac damage, plasma cardiac troponin I (cTnI) ELISA; assay type: in vivo; settings: 25 mg/kg doxorubicin ip, 1.0 or 3.0 mg/kg TK-115339 ip 3 hours before and after doxorubicin, single ip on days 2-4, plasma on day 5 (96 hours)
Excerpt: To this end, a representative nitrone test article (TK-115339) was examined for its ability to mitigate one aspect of doxorubicin-induced toxicity, cardiac damage, in CD-1 mice as determined by concentration of cardiac troponin I (cTnI) in animal plasma (Li et al., Circulation, 113:535-43 (2006) and Hou et al., J Lab Clin Med., 146: 299-303 (2005). Doxorubicin was purchased from Xinchem Corporation (China). TK-115339 was synthesized at the University of California, Santa Cruz. […]
On days 2, 3 and 4, the mice received a single ip injection of either 1 or 3 mg/kg of TK-115339. […] The plasma samples were analyzed for cTnI using a commercial ELISA test according to the manufacture's recommendations (Life Diagnostics, Inc., Cat. No. 2010-1-HSP).
(§1) Data was analyzed using SPSS software (SPSS Inc., Chicago, Ill.). […]
Representative of the data shown in FIG. 1, mice (10 animals/treatment group) were dosed ip on Day 1 with vehicle (pH 7.4 buffered saline), 25 mg/kg doxorubicin ip or 25 mg/kg doxorubicin ip plus 1.0 or 3.0 mg/kg TK-115339 3 hours before, and after, the doxorubicin treatment. […] The plasma samples were analyzed for cTnI using a commercial ELISA test for troponin I. Boxplots of troponin findings from the study are provided in FIG. 1.

CD-1 mice [3] = assay: Mouse dose response study: protection against doxorubicin-associated cardiotoxicity, plasma cTnI ELISA; assay type: in vivo; settings: 25 mg/kg doxorubicin ip, 0.0001, 0.001, 0.01, 0.1 or 1.0 mg/kg TK-115339 ip 3 hours before and after doxorubicin, plasma on day 5
Experimental: The aim of this study was to establish the dose response for the protection afforded by TK-115339 against doxorubicin-associated cardiotoxicity.
Eight to ten-week-old male CD-1 male mice (Charles River, Hollister, Calif.) weighing 30-35 g were housed in a climate-controlled environment, the light was controlled (light:dark, 12:12), and the animals were given food and water ad libitum. The animals (12 animals/treatment group) were dosed ip (200 μl volume) on day 1 with 25 mg/kg doxorubicin or 25 mg/kg doxorubicin plus 0.0001, 0.001, 0.01, 0.1 or 1.0 mg/kg TK-115339 3 hours before, and after, the doxorubicin treatment. […]
On days 2 and 3 the mice received a single ip injection of either saline (doxorubicin alone group) or […] (dose ranging experimental groups). […] The plasma samples were analyzed for cTnI using a commercial ELISA test according to the manufacture's recommendations (Life Diagnostics, Inc., Cat. No. 2010-1-HSP).
as §1
Representative of the data shown in FIG. 2, mice (12 animals/treatment group) were dosed ip on Day 1 with 25 mg/kg doxorubicin or 25 mg/kg doxorubicin plus 0.0001, 0.001, 0.01, 0.1 or 1.0 mg/kg TK-115339 3 hours before, and after, the doxorubicin treatment. […] The plasma samples were analyzed for cTnI using a commercial ELISA test.

[4] = test system: CCRF-CEM human cancer cells; assay: Cell culture study: interference with doxorubicin activity, alamarBlue cell viability; assay type: cell-based; settings: doxorubicin 0.01, 0.1, 1.0 μM with TK-115339 0.01, 0.1, 1.0 μM, 72 hour incubation
Experimental: The aim of this study was to examine whether or not a representative nitrone test article, TK-115339, interfered with the desired activity of doxorubicin in vitro.
The tumor cell line for the cell culture study was CCRF-CEM (Human T-ALL, CCL-119) from ATCC, and cells were cultured in accordance with the product information sheets replacing 75 cm^2 culture flasks with 56.7 cm^2 Petri dishes and adding 1% penicillin-streptomycin solution and 1% GlutaMAX™ to the culture medium. The compound, TK-115339, was dissolved in DMSO then diluted to obtain initial working solutions of 1, 10 and 100 μM. […]
Cells were thawed according to ATCC protocol and plated in 10 mL of sterile filtered growth medium. […] Doxorubicin was evaluated at concentrations of 0.01, 0.1 and 1.0 μM alone or in combination with TK-115339 at concentrations of 0.01, 0.1 and 1.0 μM. […]
At the end of incubation, cell viability was determined by optical absorbance of alamarBlue® at λ=570 and 600 nm in accordance using a standard protocol provided by the vendor, Biosource. Data was analyzed using SPSS 14.0 software (SPSS Inc., Chicago, Ill.). Statistical significance of the differences between experimental groups was calculated by using one-way ANOVA followed by a Bonferroni post-hoc analysis.
Cells were prepared and tested as described above. […] For each condition, 12 replicates were analyzed. […]

SMILES	solubility in methanol ([1]; methanol)	solubility in water ([1]; water)	protection from doxorubicin-induced cardiac damage estimated by plasma cardiac troponin I (cTnI) (CD-1 mice [2])	dose response of protection from doxorubicin-induced cardiac damage (plasma cardiac troponin) (CD-1 mice [3])	interference with tumor cell anti-growth activity (cytotoxicity) of doxorubicin, cell viability [4]
COc1cccc2c1C(=O)c1c(O)c3c(c(O)c1C2=O)C[C@@](O)(C(=O)CO)C[C@@H]3O[C@H]1C[C@H](N)[C@H](O)[C@H](C)O1 [Doxorubicin hydrochloride, 5,12-naphthacenedione,10-[(3-amino-2,3,6-trideoxy-α-L-Iyxo-hexopyranosyl)oxy]-7,8,9,10-tetrahydro-6,8,11-trihydroxy-8-(hydroxyacetyl)-1-methoxy-, hydrochloride, (8S-cis)-(9Cl)]	slightly soluble in methanol	soluble in water			
CC(C)(C)[N+]([O-])=Cc1ccc(SSc2ccc(C=[N+]([O-])C(C)(C)C)cc2)cc1 [TK-115339, symmetrical disulfide conjugate of alpha-(4-sulfanylphenyl)-N-tert-butylnitrone]			mitigate one aspect of doxorubicin-induced toxicity, cardiac damage in CD-1 mice; also recorded: protects mice from doxorubicin-induced cardiac damage	dose-response for the protection; also recorded: dose proportional	does not interfere with the toxicity of doxorubicin; also recorded: does not interfere with the tumor cell anti-growth activity of doxorubicin
